From patent publication US6528517B1, “Synthesis of quinobenzoxazine analogues with topoisomerase II and quadruplex interactions for use as antineoplastic agents” (Board of Regents, The University of Texas System, priority 1998, dated 2003)

Key:
human topoisomerase II = biological target: T1, human topoisomerase II (Homo sapiens, UniProt P11388); assay: Decatenation assay (catenated to decatenated KDNA); assay type: biochemical; conditions: drug concentration that inhibits 50% of conversion of catenated to decatenated KDNA; read-out: topoisomerase II inhibition IC50
T1 construct: purchased TopoGEN, Inc
Description: Kinetoplast DNA (KDNA), human topoisomerase II (170 KDa form), and DNA Unwinding Kit including supercoiled pHOT1 DNA, relaxed DNA marker, buffers, and human topoisomerase I were purchased from TopoGEN, Inc. Agarose was purchased from Fisher. Quinobenzoxazine A-62176 (S-enantiomer) was provided by Abbott Laboratories or prepared by published procedure (Chu and Maleczka, Jr., 1987).
0.25 μg of KDNA was incubated with various concentrations of the quinobenzoxazines in a 20-μl reaction mixture containing 50 mM Tris-HCl (pH 8), 120 mM KCl, 10 mM MgCl2, and 0.5 mM each of ATP, dithiothreitol, and […] BSA for 10 min. Two units of human topoisomerase II (170 KDa form) were added to the mixture, which was then incubated at 37° C. for 30 min. The reaction was terminated with 0.1 volume of stop buffer (5% sarkosyl, 0.025% bromophenol blue, and 50% glycerol). The decatenation products were analyzed on 1% agarose gels run with 0.5 μg/ml ethidium bromide. The gels were scanned by FluoroImager and analyzed by ImageQuaNT software (Molecular Dynamics).

supercoiled pHOT1 DNA = assay: DNA unwinding assay; assay type: biochemical; conditions: concentration shifting topoisomers to the middle position between relaxed and supercoiled bands
Description: A 22 μl mixture of 0.25 μg of supercoiled pHOT1 DNA, 5 units of topoisomerase I in topoisomerase I buffer (provided with the kit) was incubated at 37° C. for 30 min. Two μl of various concentrations of drug was added, and the incubation was continued for another 30 min. The reactions were terminated by addition of SDS to 1%. Proteinase K was added to the reaction mixtures to ca. 50 μg/ml, and the reaction mixtures were incubated for 15-20 min at 56° C. After adding 0.1 volume of 10×gel loading buffer, the reaction mixtures were extracted with an equal volume of CIA (Chloroform:isoamyl Alcohol; 24:1). The samples were loaded on an 1% agarous gel that was cast in TPE buffer (36 mM Tris-HCl, pH 7.8, 1 mM EDTA, 30 mM NaH2PO4) and 0.2 μg/ml Chloroquine. The gel was run in TPE buffer at room temperature at 10 volts for 20 h, destained in water for 15 min, stained in 0.05 μg/ml ethidium bromide for 15 min, and destained again in water for 15 min. The gel was then photographed, scanned by FluoroImager, and analyzed by ImageQuaNT software (Molecular Dynamics).

B16 melanoma = assay: Cancer cell growth inhibition assay (MTT); assay type: cell-based, murine
Description: (§1) Exponentially growing cells in 0.1 ml medium were seeded on Day 0 in 96-well microtiter plates. On Day 1, 0.1-ml aliquots of medium containing graded concentrations test agent were added in duplicate to the cell plates. After incubation at 37° C. in a humidified incubator, the plates were centrifuged briefly (1-2 min at 1000 rpm), and 100 μl of the growth medium was removed. Cell cultures were incubated with 50 μl of 3-(4,5-dimethylthiazyl-2-yl)-2,5-diphenyltetrazolium bromide MTT, 1 mg/ml in Dubecco's PBS for 4 h at 37° C. The resulting purple formazan precipitate was solubilized with 200 μl of 0.4 N HCl in isopropyl alcohol. Absorbance was quantitated using a Bio-Rad Model 3550 microplate reader at a test wavelength of 570 nm and a reference wavelength of 630 nm. Absorbance values were transferred to a 486 personal computer, and the IC50 values were determined using the computer program EZ-ED50 (Chen et al., 1993).

DU-145 prostate = assay: Cancer cell growth inhibition assay (MTT); assay type: cell-based, human
Description: as §1

H226 non-small-cell lung = assay: Cancer cell growth inhibition assay (MTT); assay type: cell-based, human
Description: as §1

HT-29 colon = assay: Cancer cell growth inhibition assay (MTT); assay type: cell-based, human
Description: as §1

MDA-231 breast = assay: Cancer cell growth inhibition assay (MTT); assay type: cell-based, human
Description: as §1

Raji lymphoma = assay: Cancer cell growth inhibition assay (MTT); assay type: cell-based, human
Description: as §1

T1 sequence (P11388 whole entry): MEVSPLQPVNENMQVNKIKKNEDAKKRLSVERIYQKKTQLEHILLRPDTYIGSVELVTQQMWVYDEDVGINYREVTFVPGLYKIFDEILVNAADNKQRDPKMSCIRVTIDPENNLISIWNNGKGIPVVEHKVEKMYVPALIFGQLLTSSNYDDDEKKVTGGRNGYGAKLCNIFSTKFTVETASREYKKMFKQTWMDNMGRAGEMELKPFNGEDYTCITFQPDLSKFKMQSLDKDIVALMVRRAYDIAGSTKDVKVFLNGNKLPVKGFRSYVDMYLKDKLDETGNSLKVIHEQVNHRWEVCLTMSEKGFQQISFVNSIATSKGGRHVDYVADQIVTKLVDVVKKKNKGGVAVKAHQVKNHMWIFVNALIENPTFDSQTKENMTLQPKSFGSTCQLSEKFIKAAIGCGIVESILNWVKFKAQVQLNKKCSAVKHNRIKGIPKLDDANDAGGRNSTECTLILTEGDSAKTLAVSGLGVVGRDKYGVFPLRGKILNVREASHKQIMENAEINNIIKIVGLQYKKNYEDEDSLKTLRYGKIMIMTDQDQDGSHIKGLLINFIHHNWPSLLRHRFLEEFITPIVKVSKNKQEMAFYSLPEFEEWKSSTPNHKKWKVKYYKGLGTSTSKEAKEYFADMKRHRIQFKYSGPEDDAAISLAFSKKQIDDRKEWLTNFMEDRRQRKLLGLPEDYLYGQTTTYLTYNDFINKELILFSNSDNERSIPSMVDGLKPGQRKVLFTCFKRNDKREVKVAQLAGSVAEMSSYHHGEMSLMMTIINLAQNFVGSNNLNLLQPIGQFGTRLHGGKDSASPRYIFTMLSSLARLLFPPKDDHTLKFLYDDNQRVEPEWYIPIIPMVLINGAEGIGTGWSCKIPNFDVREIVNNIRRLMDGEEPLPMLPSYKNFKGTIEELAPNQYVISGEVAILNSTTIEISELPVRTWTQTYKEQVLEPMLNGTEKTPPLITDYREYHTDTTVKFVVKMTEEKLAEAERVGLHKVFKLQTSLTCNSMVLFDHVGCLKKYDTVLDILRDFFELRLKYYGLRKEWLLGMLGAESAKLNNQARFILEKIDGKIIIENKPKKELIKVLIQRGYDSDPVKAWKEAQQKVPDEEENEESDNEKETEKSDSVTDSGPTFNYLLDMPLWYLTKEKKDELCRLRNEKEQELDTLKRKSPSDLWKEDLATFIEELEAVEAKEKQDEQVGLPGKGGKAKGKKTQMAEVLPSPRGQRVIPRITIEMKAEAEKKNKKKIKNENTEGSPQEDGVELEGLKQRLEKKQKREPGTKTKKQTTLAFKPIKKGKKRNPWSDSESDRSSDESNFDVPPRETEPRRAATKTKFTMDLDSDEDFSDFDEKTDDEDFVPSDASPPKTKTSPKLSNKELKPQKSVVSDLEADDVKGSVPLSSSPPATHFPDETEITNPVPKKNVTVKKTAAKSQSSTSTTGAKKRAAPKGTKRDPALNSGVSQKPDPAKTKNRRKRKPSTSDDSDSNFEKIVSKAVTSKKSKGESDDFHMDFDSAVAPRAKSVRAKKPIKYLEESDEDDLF

## Cl.NC1CCN(c2c(F)cc3c(=O)c(C(=O)O)cn4c3c2Oc2c-4ccc3ccccc23)C1 (centres unmarked) [Compound 2c, 1-(3-Aminopyrrolidin-1-yl)-2-fluoro-4-oxo-4H-pyrido[3,2,1-k,l]-benzo[f]-phenoxazine-5-carboxylic Acid]
Human topoisomerase II
  IC50: 0.49 µM
Supercoiled pHOT1 DNA
  DNA unwinding concn: 10 µM
B16 melanoma
  IC50: 0.18 ± 0.02 µM
DU-145 prostate
  IC50: 0.064 ± 0.007 µM
H226 non-small-cell lung
  IC50: 0.027 ± 0.004 µM
HT-29 colon
  IC50: 0.051 ± 0.006 µM
MDA-231 breast
  IC50: 0.084 ± 0.007 µM
Raji lymphoma
  IC50: 0.02 ± 0.004 µM

## NC1CCN(c2c(F)cc3c(=O)c(C(=O)O)cn4c3c2Oc2cc3ccccc3cc2-4)C1 (racemic) [Compound 3a, 1-(3-Aminopyrrolidin-1-yl)-2-fluoro-4-oxo-4H-pyrido[3,2,1-k,l]-benzo[g]-phenoxazine-5-carboxylic Acid]
Human topoisomerase II
  IC50: 0.77 µM
B16 melanoma
  IC50: 0.1 ± 0.01 µM
DU-145 prostate
  IC50: 0.025 ± 0.009 µM
H226 non-small-cell lung
  IC50: 0.004 ± 0.002 µM
HT-29 colon
  IC50: 0.028 ± 0.005 µM
MDA-231 breast
  IC50: 0.023 ± 0.004 µM
Raji lymphoma
  IC50: 0.038 ± 0.006 µM

## Cl.NC1CCN(c2c(F)cc3c(=O)c(C(=O)O)cn4c3c2Oc2cc3ccccc3cc2-4)C1 (centres unmarked) [Compound 3b, 1-(3-Aminopyrrolidin-1-yl)-2-fluoro-4-oxo-4H-pyrido[3,2,1-k,l]-benzo[g]-phenoxazine-5-carboxylic Acid]
Human topoisomerase II
  IC50: 0.42 µM
Supercoiled pHOT1 DNA
  DNA unwinding concn: 15 µM
B16 melanoma
  IC50: 0.14 ± 0.015 µM
DU-145 prostate
  IC50: 0.048 ± 0.008 µM
H226 non-small-cell lung
  IC50: 0.022 ± 0.015 µM
HT-29 colon
  IC50: 0.022 ± 0.003 µM
MDA-231 breast
  IC50: 0.021 ± 0.002 µM
Raji lymphoma
  IC50: 0.032 ± 0.005 µM

## NC1CCN(c2c(F)cc3c(=O)c(C(=O)O)cn4c3c2Oc2ccc3ccccc3c2-4)C1 (racemic) [Compound 1a, 1-(3-Aminopyrrolidin-1-yl)-2-fluoro-4-oxo-4H-pyrido[3,2,1-k,l]-benzo[h]-phenoxazine-5-carboxylic Acid]
Human topoisomerase II
  IC50: 0.77 µM
B16 melanoma
  IC50: 0.44 ± 0.06 µM
DU-145 prostate
  IC50: 0.2 ± 0.03 µM
H226 non-small-cell lung
  IC50: 0.14 ± 0.01 µM
HT-29 colon
  IC50: 0.18 ± 0.01 µM
MDA-231 breast
  IC50: 0.15 ± 0.04 µM
Raji lymphoma
  IC50: 0.086 ± 0.006 µM

## O=C(O)c1cn2c3c(c(N4CCNCC4)c(F)cc3c1=O)Oc1ccc3ccccc3c1-2 [Compound 4, 1-(Piperazin-1-yl)-2-fluoro-4-oxo-4H-pyrido[3,2,1-k,l]-benzo[h]phenoxazine-5-carboxylic Acid]
Human topoisomerase II
  IC50: 9.6 µM
Supercoiled pHOT1 DNA
  DNA unwinding concn: >100 µM
B16 melanoma
  IC50: 2.1 ± 0.3 µM
DU-145 prostate
  IC50: 0.84 ± 0.27 µM
H226 non-small-cell lung
  IC50: 2.1 ± 0.2 µM
HT-29 colon
  IC50: 2 ± 0.2 µM
MDA-231 breast
  IC50: 2.2 ± 0.3 µM
Raji lymphoma
  IC50: 0.8 ± 0.05 µM

## Cl.NC1CCN(c2c(F)cc3c(=O)c(C(=O)O)cn4c3c2Oc2ccc3ccccc3c2-4)C1 (centres unmarked) [Compound 1c, 1-(3-Aminopyrrolidin-1-yl)-2-fluoro-4-oxo-4H-pyrido[3,2,1-k,l]-benzo[h]-phenoxazine-5-carboxylic Acid]
Human topoisomerase II
  IC50: 0.72 µM
Supercoiled pHOT1 DNA
  DNA unwinding concn: 19 µM
B16 melanoma
  IC50: 0.13 ± 0.02 µM
DU-145 prostate
  IC50: 0.14 ± 0.01 µM
H226 non-small-cell lung
  IC50: 0.13 ± 0.01 µM
HT-29 colon
  IC50: 0.27 ± 0.04 µM
MDA-231 breast
  IC50: 0.19 ± 0.04 µM
Raji lymphoma
  IC50: 0.082 ± 0.008 µM

## Cl.NC1CCN(c2c(F)cc3c(=O)c(C(=O)O)cn4c3c2Oc2ccc3ccccc3c2-4)C1 (centres unmarked) [Compound 1b, 1-(3-Aminopyrrolidin-1-yl)-2-fluoro-4-oxo-4H-pyrido[3,2,1-k,l]-benzo[h]-phenoxazine-5-carboxylic Acid]
Human topoisomerase II
  IC50: 1.22 µM
Supercoiled pHOT1 DNA
  DNA unwinding concn: 35 µM
B16 melanoma
  IC50: 0.68 ± 0.05 µM
DU-145 prostate
  IC50: 0.36 ± 0.12 µM
H226 non-small-cell lung
  IC50: 2.4 ± 0.1 µM
HT-29 colon
  IC50: 0.36 ± 0.04 µM
MDA-231 breast
  IC50: 0.35 ± 0.06 µM
Raji lymphoma
  IC50: 0.16 ± 0.07 µM

## O=C(O)c1cn2c3c(c(N4CCNCC4)c(F)cc3c1=O)Oc1cc3ccccc3cc1-2 [Compound 6, 1-(Piperazin-1-yl)-2-fluoro-4-oxo-4H-pyrido[3,2,1-k,l]-benzo[g]phenoxazine-5-carboxylic Acid]
Human topoisomerase II
  IC50: 0.64 µM
Supercoiled pHOT1 DNA
  DNA unwinding concn: >100 µM
B16 melanoma
  IC50: 0.045 ± 0.048 µM
DU-145 prostate
  IC50: 0.075 ± 0.032 µM
H226 non-small-cell lung
  IC50: > 100 µM
HT-29 colon
  IC50: 6.8 ± 1.8 µM
MDA-231 breast
  IC50: > 1000 µM
Raji lymphoma
  IC50: 0.0072 ± 0.0076 µM
